A short description of this data set: Human therapeutic dose prediction. As to the method: Preliminary pharmacokinetic (PK) data were used as supportive information for the dose decision. The human therapeutic dose was predicted based on a minimum effective AUC0-168 of 30,700 nM*h (QW), which was determined in a mouse SJSA-1 xenograft experiment. For this, the difference in plasma protein binding between human and mouse was taken into account, which translated to an effective AUC0-168 of 11,350 nM*h for QW dosing in humans. The human therapeutic dose was predicted to be 64 mg (free acid) with QW dosing.

The text below walks through data of patent publication US20230058171A1, “NEW ORAL PHARMACEUTICAL COMPOSITION FOR CANCER THERAPY” (BOEHRINGER INGELHEIM INTERNATIONAL GMBH, priority 2021, published 2023).

One may read the Cmax as the peak of the concentration-time curve.

On to `Cc1c(C(=O)O)ccc2c3n(nc12)[C@@H]1[C@H](C3)N(CC2CC2)[C@@]2(C(=O)Nc3cc(Cl)ccc32)[C@H]1c1cccc(Cl)c1F` [MDM2-antagonist of formula I, (2′S,3′S,3a'S,10a'S)-6-chloro-3′-(3-chloro-2-fluorophenyl)-1′-(cyclopropylmethyl)-6′-methyl-2-oxo-1,2,3′,3a′,10′,10a′-hexahydro-1′H-spiro[indole-3,2′-pyrrolo[2′,3′:4,5]pyrrolo[1,2-b]indazole]-7′-carboxylic acid], for which the Cmax (at predicted human therapeutic dose, QW) was 680 nM. In addition, the “predicted human therapeutic dose” value (free acid, QW dosing) was 64 mg. The AUC(0-t) (oral, 64 mg, QW dosing in humans, corrected for plasma protein binding human vs mouse, read-out: effective AUC0-168) was 11.3 µM·h.
